Values joined by “and” are separate entries in the source; they are usually repeats but may differ in a detail not shown here. Equal entries are not always repeated.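 Protocol summary: plate cells (96-well), add compound at 5 concentrations, incubate 48 h, interpolate endpoints linearly. Abbreviation: GI50, concentration required for 50% inhibition of growth. TGI: total growth inhibition.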
Columns and labels:
Assay in all cases: inhibition of tumour cell growth, NCI panel, 48 h
CAKI-1 renal = system: CAKI-1 renal
SW-620 colon = system: SW-620 colon
COLO 205 colon = system: COLO 205 colon
SF-268 CNS = system: SF-268 CNS
OVCAR-4 ovarian = system: OVCAR-4 ovarian
M14 melanoma = system: M14 melanoma
786-0 renal = system: 786-0 renal
MOLT-4 leukemia = system: MOLT-4 leukemia
SF-539 CNS = system: SF-539 CNS
SK-MEL-28 melanoma = system: SK-MEL-28 melanoma

Compound | GI50 (CAKI-1 renal) | TGI (CAKI-1 renal) | GI50 (SW-620 colon) | TGI (SW-620 colon) | GI50 (COLO 205 colon) | TGI (COLO 205 colon) | GI50 (SF-268 CNS) | TGI (SF-268 CNS) | GI50 (OVCAR-4 ovarian) | TGI (OVCAR-4 ovarian) | GI50 (M14 melanoma) | TGI (M14 melanoma) | GI50 (786-0 renal) | TGI (786-0 renal) | GI50 (MOLT-4 leukemia) | GI50 (SF-539 CNS) | TGI (SF-539 CNS) | GI50 (SK-MEL-28 melanoma) | TGI (MOLT-4 leukemia) | TGI (SK-MEL-28 melanoma) [µM]
Nc1cc(-c2cccc(OC(F)(F)F)c2)nc2ccc(N3CCCC3)cc12 | 0.0515 µM and 0.0489 µM and 0.0417 µM | > 100 µM | 0.0435 µM and 0.0413 µM and 0.0366 µM | 22.1 µM and > 100 µM | 0.041 µM and 0.0391 µM and 0.0357 µM | 1.42 µM and 2.61 µM | 0.0819 µM and 0.0837 µM and 0.0784 µM | 22 µM and > 100 µM | 0.519 µM and 1.16 µM and 1.59 µM | > 100 µM | 0.0285 µM and 0.0215 µM and 0.0168 µM | 1.6 µM and 1.7 µM | 0.0656 µM and 0.078 µM and 0.0573 µM | 12.3 µM and > 100 µM and > 47.8 µM | 0.0447 µM and 0.0422 µM and 0.0405 µM | 0.0358 µM and 0.0372 µM and 0.0354 µM | 1.24 µM and 1.54 µM and 1.42 µM | 1.46 µM and 3.07 µM and 3.91 µM |  | 
C=CCN1C=CC(=O)[C@H](O[Si](C)(C)C(C)(C)C)[C@@H]1/C=C/c1ccccc1 | 15.7 µM | 32.7 µM | 14.5 µM | 29.3 µM | 4.39 µM | 16.2 µM | 15.1 µM | 30.9 µM | 11.6 µM | 24.7 µM | 13.2 µM | 27.5 µM | 15.4 µM | 29.4 µM | 10.7 µM | 16 µM | 30.1 µM | 15 µM | 28.8 µM | 28.6
CSc1nc(NC(=O)O)c(N(C(C)=O)C(=O)O)c(=O)n1C |  | > 100 µM |  | > 100 µM |  | > 100 µM |  | > 100 µM |  | > 100 µM |  | > 100 µM |  | > 100 µM |  |  | > 100 µM |  | > 100 µM | > 100
CCN=c1cc2sc3cc(NCC)c(C)cc3nc-2cc1C | 1.34 µM | 4.6 µM | 0.694 µM | 12.8 µM | 2.15 µM | 7.78 µM | 2.47 µM | 14.4 µM | 0.237 µM | 2.31 µM | 0.636 µM | 2.74 µM | 3.1 µM | 15.5 µM | 0.714 µM | 0.434 µM | 10.2 µM | 11.7 µM | > 100 µM | 25.6
C=CCN(CC=C)C(=O)c1cc(C)nc2c1c(=O)n(-c1ccccc1)c(=O)n2CC(O)CN1CCN(c2ncccn2)CC1 (configuration not stated) | > 100 µM | > 100 µM | > 100 µM | > 100 µM | > 100 µM | > 100 µM | 17.2 µM | > 100 µM | 80.3 µM | > 100 µM | > 100 µM | > 100 µM | > 100 µM | > 100 µM | > 100 µM | > 100 µM | > 100 µM | 60.9 µM | > 100 µM | > 100
O=[N+]([O-])c1ccc(N=Nc2c(O)ccc3ccccc23)cc1 |  | > 100 µM |  | > 100 µM |  | > 100 µM | 35.9 µM and > 100 µM | > 100 µM | 24.3 µM and > 100 µM | 65.7 µM and > 100 µM | 43.6 µM and > 100 µM | > 100 µM |  | > 100 µM |  |  | > 100 µM |  | > 100 µM | > 100
Cc1cc(-c2nnc(N)nc2-c2ccc(F)cc2)cc(Cl)n1 | 43.8 µM | > 100 µM | > 100 µM | > 100 µM | > 100 µM | > 100 µM | > 100 µM | > 100 µM | 97.3 µM | > 100 µM | > 100 µM | > 100 µM | > 100 µM | > 100 µM | 49.9 µM | > 100 µM | > 100 µM | > 100 µM | > 100 µM | > 100
Cc1cccc(Cl)c1NC(=O)/C=C/c1ccccc1 |  | > 100 µM |  | > 100 µM |  | > 100 µM |  | > 100 µM |  | 70.1 µM |  | > 100 µM |  | > 100 µM |  |  | > 100 µM |  | > 100 µM | > 100
COC(=O)C12C3C4C5C3(C#N)C1C5(C(=O)OC)C42C(=O)N(C(C)C)C(C)C (configuration not stated) |  | > 100 µM |  | > 65.3 µM |  | > 100 µM |  | > 100 µM |  | > 100 µM |  | > 100 µM |  | > 100 µM |  |  | > 100 µM |  | > 100 µM | > 100
CCn1c(O)c(C=N)c(=O)n(CC)c1=O |  | > 100 µM |  | > 100 µM |  | > 100 µM |  | > 100 µM |  | > 100 µM |  | > 100 µM |  | > 100 µM |  |  | > 100 µM |  | > 100 µM | > 100
COc1ccc(-c2nc3ncccn3c2/C=C/C(=O)c2cc(OC)c(OC)c(OC)c2)cc1 | 1.58 µM | 5.06 µM | 1.75 µM | 3.94 µM | 1.7 µM | 3.07 µM | 2.36 µM | 9.62 µM | 2.91 µM | 14.3 µM | 1.53 µM | 3.08 µM | 1.84 µM | 5.51 µM | 3.1 µM | 1.36 µM | 2.95 µM | 1.65 µM | > 100 µM | 3.27
CC1=C2C[C@H]3[C@@H](CC=C4C[C@@H](O)CC[C@@]43C)[C@@H]2CC[C@]12O[C@@H]1C[C@H](C)CN[C@H]1[C@H]2C | 29.2 µM and 20 µM | 50 µM and 44.5 µM | > 50 µM and 32.9 µM | > 100 µM | 13.6 µM and 4.28 µM | 38.6 µM and 19.1 µM | 21.2 µM and 23.7 µM | 50 µM and 50.9 µM | 32.1 µM and 18.8 µM | 50 µM and 37.3 µM | > 50 µM and 19.6 µM | > 50 µM and 44.1 µM | 15.5 µM and 17.3 µM | 50 µM and 33.4 µM | 17.7 µM and 20.5 µM | 21.3 µM and 20 µM | 50 µM and 37.8 µM | > 50 µM and 48.5 µM | 50 µM and 58.6 µM | > 100
CCCCCCCCCCC(O)C1CCC(C(O)CCC(O)C2CCC(CCCCCCC[C@H](O)CC3=C[C@@H](C)OC3=O)O2)O1 (some centres not stated) |  | > 100 µM | 9.3 µM | > 100 µM |  | > 100 µM |  | > 100 µM |  | > 100 µM |  | > 100 µM |  | 53.9 µM |  |  | > 100 µM |  | > 100 µM | > 100
C[C@@H]1N=C(c2ccc(Br)cc2)Nc2nc3ccccn3c2C1=O | 3.09 µM | > 100 µM | 3.75 µM | > 100 µM | 1.87 µM | 4.75 µM | 17.2 µM | > 100 µM | 17.9 µM | > 100 µM | 3.6 µM | 48.2 µM | 23.8 µM | > 100 µM | 12.8 µM | 7.98 µM | 85.3 µM | 9.51 µM | > 100 µM | > 100
